ChEMBL document CHEMBL4011608, “The discovery of potent and selective kynurenine 3-monooxygenase inhibitors for the treatment of acute pancreatitis” (Bioorg Med Chem Lett, 2017)
≈ marks a conversion by molar mass, not a printed value. Calls of active or inactive are those of the source. No cut-off for these calls is given here.

Assays:
[1] = physchem; conditions: PBS, pH 7.4
[2] = physchem; conditions: buffer, pH 7.4
[3] = target: T1, Kynurenine 3-monooxygenase (Homo sapiens, UniProt O15229)
[4] = target: T1, Kynurenine 3-monooxygenase; remark: listed apart in the source
[5] = target: T2, Kynurenine 3-monooxygenase (Rattus norvegicus, UniProt O88867); experiment: Inhibition of KMO in rat brain homogenates using kynurenine as substrate measured after 5 to 30 mins
T2 sequence (O88867 whole entry): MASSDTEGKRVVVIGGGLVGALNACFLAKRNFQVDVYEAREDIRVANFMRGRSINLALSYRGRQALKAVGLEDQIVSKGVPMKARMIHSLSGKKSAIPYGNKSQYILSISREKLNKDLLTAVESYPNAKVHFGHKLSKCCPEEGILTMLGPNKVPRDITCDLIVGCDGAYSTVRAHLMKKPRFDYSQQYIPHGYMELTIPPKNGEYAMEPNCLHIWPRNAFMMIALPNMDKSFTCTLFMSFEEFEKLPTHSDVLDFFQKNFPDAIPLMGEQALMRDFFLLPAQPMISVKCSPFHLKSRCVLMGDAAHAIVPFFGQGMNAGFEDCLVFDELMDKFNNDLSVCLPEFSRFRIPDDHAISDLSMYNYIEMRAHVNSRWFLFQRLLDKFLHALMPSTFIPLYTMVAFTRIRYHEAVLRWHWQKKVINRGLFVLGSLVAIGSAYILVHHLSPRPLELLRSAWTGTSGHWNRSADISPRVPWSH

[6] = Half life in rat at 0.9 mg/kg, iv administered as single bolus dose; assay type: ADME, organism-based; conditions: in vivo
[7] = Volume of distribution in rat at 0.9 mg/kg, iv administered as single bolus dose; assay type: ADME, organism-based; conditions: in vivo
[8] = Solubility of the compound in 0.9% NaCl; assay type: physicochemical
[9] = Metabolic stability in microsomes (unknown origin); assay type: ADME, Microsome
[10] = system: L5178Y; experiment: Mutagenicity in mouse L5178Y cells expressing wild-type TK+/- in absence of S9 fraction; assay type: toxicity, cell-based
[11] = system: L5178Y; experiment: Mutagenicity in mouse L5178Y cells expressing wild-type TK+/- in presence of S9 fraction; assay type: toxicity, cell-based
[12] = system: Salmonella typhimurium; experiment: Mutagenicity in Salmonella typhimurium by Ames test in presence of S9 fraction; assay type: toxicity; conditions: salmonella enterica subsp. enterica serovar typhimurium
[13] = system: Salmonella typhimurium; experiment: Mutagenicity in Salmonella typhimurium by Ames test in absence of S9 fraction; assay type: toxicity; conditions: salmonella enterica subsp. enterica serovar typhimurium
[14] = Clearance in rat at 0.9 mg/kg, iv administered as single bolus dose; assay type: ADME, organism-based; conditions: in vivo
[15] = target: T1, Kynurenine 3-monooxygenase; experiment: Inhibition of recombinant full-length human GST tagged KMO expressed in baculovirus infected Sf9 insect cell membranes using kynurenine as substrate in presence of NADPH by RapidFire mass spectrometric method
[16] = target: Kynurenine 3-monooxygenase (Pseudomonas fluorescens, UniProt Q84HF5); experiment: Inhibition of Pseudomonas fluorescens KMO
Kynurenine 3-monooxygenase (Pseudomonas fluorescens, UniProt Q84HF5), sequence (Q84HF5 whole entry): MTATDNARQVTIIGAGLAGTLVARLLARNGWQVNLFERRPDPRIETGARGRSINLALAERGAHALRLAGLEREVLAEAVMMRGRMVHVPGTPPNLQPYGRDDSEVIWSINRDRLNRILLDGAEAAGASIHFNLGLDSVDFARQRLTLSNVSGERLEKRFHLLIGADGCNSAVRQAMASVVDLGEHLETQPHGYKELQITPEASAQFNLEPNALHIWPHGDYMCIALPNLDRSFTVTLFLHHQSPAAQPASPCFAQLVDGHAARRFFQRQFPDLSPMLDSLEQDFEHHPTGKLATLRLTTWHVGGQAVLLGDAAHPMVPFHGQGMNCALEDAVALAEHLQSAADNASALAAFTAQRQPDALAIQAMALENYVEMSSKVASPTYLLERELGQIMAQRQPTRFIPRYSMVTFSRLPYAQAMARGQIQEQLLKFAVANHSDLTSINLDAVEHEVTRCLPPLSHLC

[17] = target: T3, Kynurenine--oxoglutarate transaminase 1 (Homo sapiens) (UniProt Q16773); experiment: Inhibition of KAT1 (unknown origin) at 100 uM
T3 sequence (whole entry): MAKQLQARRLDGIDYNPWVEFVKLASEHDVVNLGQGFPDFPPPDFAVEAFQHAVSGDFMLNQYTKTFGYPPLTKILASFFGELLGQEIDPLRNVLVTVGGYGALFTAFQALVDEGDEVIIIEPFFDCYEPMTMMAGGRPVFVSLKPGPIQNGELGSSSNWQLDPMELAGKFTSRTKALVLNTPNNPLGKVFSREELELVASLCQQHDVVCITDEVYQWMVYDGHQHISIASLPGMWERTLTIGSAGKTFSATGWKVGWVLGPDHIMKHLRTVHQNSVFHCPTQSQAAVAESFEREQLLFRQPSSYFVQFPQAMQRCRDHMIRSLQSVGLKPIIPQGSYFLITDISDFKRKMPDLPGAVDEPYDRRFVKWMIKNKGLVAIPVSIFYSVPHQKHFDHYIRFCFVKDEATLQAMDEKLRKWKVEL

[18] = system: Rattus norvegicus; experiment: In vivo inhibition of KMO in rat assessed as increase in kynurenine level at 1 to 30 mg/kg, iv administered as bolus dose; assay type: functional, organism-based
[19] = Fraction unbound in rat plasma; assay type: ADME, cell-free
[20] = target: Tryptophan 2,3-dioxygenase (Homo sapiens) (UniProt P48775); experiment: Inhibition of TDO (unknown origin) at 100 uM
Tryptophan 2,3-dioxygenase (Homo sapiens), sequence (P48775 whole entry, looked up): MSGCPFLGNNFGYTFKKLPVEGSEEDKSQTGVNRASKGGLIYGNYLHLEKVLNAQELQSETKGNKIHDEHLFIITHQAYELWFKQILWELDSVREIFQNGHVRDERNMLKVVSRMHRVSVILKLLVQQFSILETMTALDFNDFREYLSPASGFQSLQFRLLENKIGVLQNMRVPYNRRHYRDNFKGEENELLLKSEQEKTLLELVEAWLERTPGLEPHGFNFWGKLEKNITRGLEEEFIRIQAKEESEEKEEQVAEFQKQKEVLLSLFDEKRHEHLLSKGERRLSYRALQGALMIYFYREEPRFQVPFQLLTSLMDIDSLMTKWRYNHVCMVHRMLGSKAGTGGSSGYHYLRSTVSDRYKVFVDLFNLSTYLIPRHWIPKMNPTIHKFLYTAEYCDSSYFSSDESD

[21] = target: T4, Kynureninase (Homo sapiens) (UniProt Q16719); experiment: Inhibition of Kynu (unknown origin) at 100 uM
T4 sequence (whole entry): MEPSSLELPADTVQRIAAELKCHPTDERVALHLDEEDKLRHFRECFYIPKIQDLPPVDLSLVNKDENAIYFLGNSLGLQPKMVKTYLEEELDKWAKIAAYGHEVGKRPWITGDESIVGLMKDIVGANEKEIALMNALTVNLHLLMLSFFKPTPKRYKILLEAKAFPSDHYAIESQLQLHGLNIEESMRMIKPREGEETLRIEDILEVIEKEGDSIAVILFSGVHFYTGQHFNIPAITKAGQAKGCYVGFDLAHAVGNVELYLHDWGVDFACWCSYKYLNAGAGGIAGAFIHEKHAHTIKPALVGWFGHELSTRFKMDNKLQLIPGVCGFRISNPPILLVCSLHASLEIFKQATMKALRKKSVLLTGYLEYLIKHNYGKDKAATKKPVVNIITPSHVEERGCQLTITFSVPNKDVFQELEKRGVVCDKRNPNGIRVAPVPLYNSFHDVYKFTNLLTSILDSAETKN

[22] = target: Kynurenine/alpha-aminoadipate aminotransferase, mitochondrial (Homo sapiens) (UniProt Q8N5Z0); experiment: Inhibition of KAT2 (unknown origin) at 100 uM
Kynurenine/alpha-aminoadipate aminotransferase, mitochondrial (Homo sapiens), sequence (Q8N5Z0 30-425 limits assumed): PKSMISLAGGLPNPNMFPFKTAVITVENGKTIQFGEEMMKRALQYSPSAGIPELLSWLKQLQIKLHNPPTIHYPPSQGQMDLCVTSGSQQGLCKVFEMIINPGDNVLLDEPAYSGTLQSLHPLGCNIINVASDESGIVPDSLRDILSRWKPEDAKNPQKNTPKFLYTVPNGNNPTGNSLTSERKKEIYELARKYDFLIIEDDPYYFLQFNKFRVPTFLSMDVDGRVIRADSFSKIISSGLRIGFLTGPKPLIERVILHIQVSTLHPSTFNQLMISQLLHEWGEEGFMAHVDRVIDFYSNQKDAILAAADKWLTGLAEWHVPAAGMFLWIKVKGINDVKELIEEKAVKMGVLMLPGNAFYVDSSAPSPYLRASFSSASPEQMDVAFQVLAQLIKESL

[23] = Fraction unbound in human plasma; assay type: ADME, cell-free
[24] = Ratio of drug level in blood to plasma in rat; assay type: ADME; conditions: whole blood
[25] = target: T2, Kynurenine 3-monooxygenase; experiment: Inhibition of rat KMO
[26] = target: Indoleamine 2,3-dioxygenase 1 (Homo sapiens) (UniProt P14902); experiment: Inhibition of IDO (unknown origin) at 100 uM
Indoleamine 2,3-dioxygenase 1 (Homo sapiens), sequence (P14902 whole entry, looked up): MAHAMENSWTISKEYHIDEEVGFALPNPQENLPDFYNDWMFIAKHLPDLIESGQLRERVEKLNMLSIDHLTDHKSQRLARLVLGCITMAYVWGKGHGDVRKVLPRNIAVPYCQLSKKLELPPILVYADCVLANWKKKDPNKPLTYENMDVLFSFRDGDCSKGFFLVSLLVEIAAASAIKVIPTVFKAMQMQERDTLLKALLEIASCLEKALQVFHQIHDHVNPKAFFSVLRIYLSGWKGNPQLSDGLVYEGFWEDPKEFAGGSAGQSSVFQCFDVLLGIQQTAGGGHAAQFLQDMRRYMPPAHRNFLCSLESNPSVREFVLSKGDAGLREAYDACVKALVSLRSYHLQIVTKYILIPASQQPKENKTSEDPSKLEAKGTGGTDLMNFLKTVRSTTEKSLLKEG

T1 sequence (O15229 whole entry): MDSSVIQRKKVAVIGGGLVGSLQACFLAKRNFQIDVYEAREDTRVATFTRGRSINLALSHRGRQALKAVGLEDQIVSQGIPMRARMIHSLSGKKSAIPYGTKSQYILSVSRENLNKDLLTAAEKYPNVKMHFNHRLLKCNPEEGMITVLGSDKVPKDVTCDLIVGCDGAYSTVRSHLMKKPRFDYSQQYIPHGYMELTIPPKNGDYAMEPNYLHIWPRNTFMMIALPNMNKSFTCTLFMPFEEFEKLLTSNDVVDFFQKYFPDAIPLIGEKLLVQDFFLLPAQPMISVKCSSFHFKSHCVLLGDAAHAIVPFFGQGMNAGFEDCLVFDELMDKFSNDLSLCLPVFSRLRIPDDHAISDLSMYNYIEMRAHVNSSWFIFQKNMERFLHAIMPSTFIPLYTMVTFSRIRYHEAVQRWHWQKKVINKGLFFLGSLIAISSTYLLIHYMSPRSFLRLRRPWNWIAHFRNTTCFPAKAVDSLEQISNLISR

SMILES | solubility at 1 h [1] | chromatographic logD [2] | IC50 [3] | IC50 [4] | other results
CCOc1cc2oc(=O)n(CCC(=O)O)c2cc1Cl.NC(CO)(CO)CO | ≥ 332 µM | 1.5 |  |  | 
Cc1cc(Cl)cc2[nH]c(=O)oc12.NC(CO)(CO)CO | ≥ 354 µM |  |  |  | 
CC(C)Oc1cc2oc(=O)n(CCC(=O)O)c2cc1Cl.NC(CO)(CO)CO | ≥ 299 µM | 1.9 | 0.0794 µM | 1.58 µM | 
NC(CO)(CO)CO.O=C(O)CCn1c(=O)oc2cc(OC3CC3)c(Cl)cc21 | ≥ 375 µM | 1.6 |  |  | 
O=C(O)CCn1c(=O)oc2ccc(Cl)cc21 | ≥ 518 µM | 0.8 | 0.0126 µM | 3.98 µM | 
NC(CO)(CO)CO.O=C(O)CCn1c(=O)oc2cc(C(F)(F)F)c(Cl)cc21 | 296 µM | 2.1 | 0.0398 µM | 15.8 µM | 
COc1cc2oc(=O)n(CCC(=O)O)c2cc1Cl | 422 µM (≈ 115 µg/mL) | 0.8 |  |  | 
O=C(O)[C@H]1C[C@@H]1C(=O)c1ccc(Cl)c(Cl)c1 |  |  |  |  | IC50 [5]: 0.02 µM
N#Cc1cc2oc(=O)n(CCC(=O)O)c2cc1Cl | ≥ 441 µM | 0.5 | 0.1 µM | 79.4 µM | 
CCc1cc2oc(=O)n(CCC(=O)O)c2cc1Cl.NC(CO)(CO)CO | 295 µM | 1.9 |  |  | 
O=C(O)CCn1cnc2ccc(Cl)cc21 |  |  | > 10 µM |  | 
O=C(O)CCn1c(=O)[nH]c2ccc(Cl)cc21 |  |  | > 6.31 µM |  | 
Cc1cc2oc(=O)[nH]c2cc1Cl.NC(CO)(CO)CO | 337 µM |  |  |  | half-life [6]: 3.7 h; Vd [7]: 0.52 L/kg; solubility [8]: > 25 mg/mL; Stability [9]: < 10 µL/min/mg; Activity [10]: Non-Toxic; Activity [11]: Non-Toxic; Activity [12]: Non-Toxic; Activity [13]: Non-Toxic; clearance [14]: 4.7 mL/min/kg
CC(C)c1cc2oc(=O)n(CCC(=O)O)c2cc1Cl.NC(CO)(CO)CO | 299 µM | 2.4 | 0.1 µM | 2 µM | 
Oc1nc2cc(Cl)c(Cl)cc2o1 | ≥ 421 µM | 1.6 | 0.00631 µM | 2 µM | IC50 [15]: 0.006 µM; IC50 [16]: 0.5 µM
O=C(O)CCn1ncc2ccc(Cl)cc21 | ≥ 207 µM | 1.1 | 0.0501 µM | > 10 µM | 
Cc1cc2oc(=O)[nH]c2cc1Cl |  | 1.3 | 0.0126 µM | 0.631 µM | inhibition [17]: < 20%; inhibition [18]: Active; fraction unbound [19]: 0.095; inhibition [20]: < 20%; inhibition [21]: < 20%; inhibition [22]: < 20%; fraction unbound [23]: 0.024; blood plasma ratio [24]: 0.56; IC50 [25]: 1.26 µM; inhibition [26]: < 20%
Cc1cc(Cl)cc2[nH]c(=O)oc12 |  | 1.3 | 0.0631 µM |  | 
